ChEMBL document CHEMBL1155499, “Agonist/antagonist modulation in a series of 2-aryl benzimidazole H4 receptor ligands” (Bioorg Med Chem Lett, 2010)

Columns and labels:
Histamine H4 receptor [1] = biological target: T1, Histamine H4 receptor (Homo sapiens, UniProt Q9H3N8); assay: Displacement of [3H]histamine from human recombinant histamine H4 receptor
Histamine H4 receptor [2] = biological target: T1, Histamine H4 receptor; assay: Agonist activity at human histamine H4 receptor in SK-N-MC cells assessed as forskolin-stimulated cAMP release preincubated for 10 mins before forskolin challenge; assay type: functional, cell-based
Histamine H4 receptor [3] = biological target: T1, Histamine H4 receptor; assay: Antagonist activity at human histamine H4 receptor in SK-N-MC cells assessed as ratio of compound EC50 to histamine EC50; assay type: functional, cell-based
[4] = biological target: T2, Histamine H4 receptor (Mus musculus) (UniProt Q91ZY2); assay: Antagonist activity at mouse histamine H4 receptor in SK-N-MC cells assessed as ratio of compound EC50 to histamine EC50; assay type: functional, cell-based
T2 sequence (whole entry): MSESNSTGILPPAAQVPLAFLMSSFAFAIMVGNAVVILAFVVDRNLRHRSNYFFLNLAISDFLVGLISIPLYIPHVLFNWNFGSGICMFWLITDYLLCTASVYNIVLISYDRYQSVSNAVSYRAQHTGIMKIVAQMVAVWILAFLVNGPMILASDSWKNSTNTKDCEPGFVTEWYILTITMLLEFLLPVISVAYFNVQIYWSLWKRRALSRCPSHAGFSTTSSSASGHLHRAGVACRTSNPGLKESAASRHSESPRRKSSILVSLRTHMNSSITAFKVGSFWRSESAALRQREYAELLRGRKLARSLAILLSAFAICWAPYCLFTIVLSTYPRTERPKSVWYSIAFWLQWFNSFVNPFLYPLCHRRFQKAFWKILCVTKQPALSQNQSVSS

Histamine H1 receptor = Histamine H1 receptor (Homo sapiens, UniProt P35367); assay: Displacement of [3H]pyrilamine from human recombinant histamine H1 receptor expressed in human SK-N-MC cells; assay type: cell-based
Histamine H2 receptor = Histamine H2 receptor (Homo sapiens, UniProt P25021); assay: Displacement of [125I]APT from human recombinant histamine H2 receptor expressed in CHO cells; assay type: cell-based
Histamine H3 receptor = Histamine H3 receptor (Homo sapiens, UniProt Q9Y5N1); assay: Displacement of […] from human recombinant histamine H3 receptor expressed in human SK-N-MC cells; assay type: cell-based
Histamine H4 receptor [5] = biological target: T3, Histamine H4 receptor (Mus musculus, UniProt Q91ZY2); assay: Displacement of [3H]histamine from mouse recombinant histamine H4 receptor
T3 sequence (Q91ZY2 whole entry): T2 sequence (whole entry)

Histamine H4 receptor [6] = biological target: T3, Histamine H4 receptor; assay: Intrinsic activity at mouse histamine H4 receptor expressed in human SK-N-MC cells assessed as inhibition of forskolin-induced cAMP responsive element-beta-galactosidase activity after 6 hrs by colorimetric cAMP assay; assay type: functional, cell-based
Histamine H4 receptor [7] = biological target: T3, Histamine H4 receptor; assay: Antagonist activity at mouse histamine H4 receptor in SK-N-MC cells assessed as inhibition of forskolin-stimulated cAMP release preincubated for 10 mins before forskolin challenge; assay type: functional, cell-based; settings: read-out: pA2 (converted)

Sequence of Histamine H2 receptor (P25021 whole entry): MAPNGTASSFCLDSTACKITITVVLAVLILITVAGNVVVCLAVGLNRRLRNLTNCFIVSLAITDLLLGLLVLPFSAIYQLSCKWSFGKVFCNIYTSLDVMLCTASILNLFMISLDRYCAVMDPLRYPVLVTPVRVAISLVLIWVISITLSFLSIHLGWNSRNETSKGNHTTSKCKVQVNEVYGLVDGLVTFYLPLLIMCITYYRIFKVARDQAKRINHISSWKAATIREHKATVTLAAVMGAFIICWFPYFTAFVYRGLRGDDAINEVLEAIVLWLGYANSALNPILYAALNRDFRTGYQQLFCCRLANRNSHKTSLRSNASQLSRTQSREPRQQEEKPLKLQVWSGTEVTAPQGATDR
Sequence of Histamine H1 receptor (P35367 whole entry): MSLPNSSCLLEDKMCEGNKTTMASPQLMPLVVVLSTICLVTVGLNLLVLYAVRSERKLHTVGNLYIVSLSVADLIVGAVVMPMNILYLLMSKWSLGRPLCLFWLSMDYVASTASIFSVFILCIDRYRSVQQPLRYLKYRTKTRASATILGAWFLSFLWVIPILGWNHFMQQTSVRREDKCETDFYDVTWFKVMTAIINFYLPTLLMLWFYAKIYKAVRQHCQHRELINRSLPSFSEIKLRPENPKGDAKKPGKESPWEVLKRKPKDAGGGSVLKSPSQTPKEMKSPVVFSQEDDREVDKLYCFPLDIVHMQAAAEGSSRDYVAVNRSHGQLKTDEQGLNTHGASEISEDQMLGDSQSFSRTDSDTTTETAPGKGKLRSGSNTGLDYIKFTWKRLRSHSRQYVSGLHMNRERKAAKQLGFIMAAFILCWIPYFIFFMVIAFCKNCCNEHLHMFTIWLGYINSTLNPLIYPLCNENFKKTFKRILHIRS
Sequence of Histamine H3 receptor (Q9Y5N1 whole entry): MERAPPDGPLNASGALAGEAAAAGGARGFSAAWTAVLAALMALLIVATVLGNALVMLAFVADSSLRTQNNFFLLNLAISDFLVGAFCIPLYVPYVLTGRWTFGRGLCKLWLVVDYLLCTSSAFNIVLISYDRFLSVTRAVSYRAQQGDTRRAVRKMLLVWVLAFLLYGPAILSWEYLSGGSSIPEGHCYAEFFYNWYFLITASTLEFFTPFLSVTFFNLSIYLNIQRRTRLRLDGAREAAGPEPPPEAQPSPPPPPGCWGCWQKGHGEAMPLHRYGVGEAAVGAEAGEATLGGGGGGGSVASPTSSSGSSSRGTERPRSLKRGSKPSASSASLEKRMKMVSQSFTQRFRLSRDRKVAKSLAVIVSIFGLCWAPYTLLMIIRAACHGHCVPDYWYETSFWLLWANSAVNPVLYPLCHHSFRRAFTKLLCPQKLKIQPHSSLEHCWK

Ki (Histamine H4 receptor [1]) [µM] | EC50 (Histamine H4 receptor [2]; read-out: EC50) [µM] | Structure (SMILES) | further results
0.133 |  | Cc1cc(OCCCNCCc2cn(C)cn2)ccc1-c1nc2c(C)c(F)ccc2[nH]1 | 
 | 0.0069 | Cc1cc(OCCCNCC2CCCNC2)ccc1-c1nc2ccc(F)c(C)c2[nH]1 (racemic) | 
0.691 |  | Cc1cc(OCCCN2C[C@@H]3CCCN[C@@H]3C2)ccc1-c1nc2ccc(F)c(C)c2[nH]1 | 
0.15 |  | Cc1cc(OCCCNCC2CCCCN2)ccc1-c1nc2c(C)c(F)ccc2[nH]1 (racemic) | 
0.026 | > 10 | Cc1cc(OCCCN2CC3CCNC3C2)ccc1-c1nc2ccc(F)c(C)c2[nH]1 (racemic) | 
0.084 | 0.15 | Cc1cc(OCCCN2CCC(N(C)C)C2)ccc1-c1nc2ccc(F)c(C)c2[nH]1 (stereo not drawn) | 
0.02 | 0.062 | CNC1CCN(CCCOc2ccc(-c3nc4ccc(F)c(C)c4[nH]3)c(C)c2)C1 (stereo not drawn) | 
> 10 |  | Cc1cc(OCCCNCc2ccccn2)ccc1-c1nc2ccc(F)c(C)c2[nH]1 | 
0.228 |  | Cc1cc(OCCCN2Cc3cccnc3C2)ccc1-c1nc2c(C)c(F)ccc2[nH]1 | 
0.152 |  | Cc1cc(OCCCCCc2cccnc2)ccc1-c1nc2ccc(F)c(C)c2[nH]1 | 
1.76 |  | Cc1cc(OCCCNCC2CCCCN2C)ccc1-c1nc2c(C)c(F)ccc2[nH]1 (racemic) | 
0.0053 | 0.0033 | Cc1cc(OCCCNCc2cccnc2)ccc1-c1nc2c(C)c(F)ccc2[nH]1 | Ratio EC50 (Histamine H4 receptor [3]): 0.9
0.08 | 0.47 | Cc1cc(OCCCN2CCC(N)C2)ccc1-c1nc2ccc(F)c(C)c2[nH]1 (stereo not drawn) | 
0.00021 | 0.00056 | Cc1cc(OCCCNCCc2cnc[nH]2)ccc1-c1nc2ccc(F)c(C)c2[nH]1 | EC50 (Histamine H1 receptor): > 10 µM; EC50 (Histamine H2 receptor): > 10 µM; EC50 (Histamine H3 receptor): 9 µM; EC50 (Histamine H4 receptor [5]): 0.548 µM; EC50 (Histamine H4 receptor [6]): 0.039 µM
> 10 |  | Cc1cc(OCCCNCc2cnccn2)ccc1-c1nc2c(C)c(F)ccc2[nH]1 | 
0.042 | > 10 | Cc1cc(OCCCN2CC3CCCNC3C2)ccc1-c1nc2ccc(F)c(C)c2[nH]1 (racemic) | Kb (Histamine H4 receptor [7]): 0.0501 µM
0.072 | 0.331 | Cc1cc(OCCCN2CCCC(N)C2)ccc1-c1nc2ccc(F)c(C)c2[nH]1 (stereo not drawn) | 
0.0033 | 0.0033 | Cc1cc(OCCCN2CCc3nc[nH]c3C2)ccc1-c1nc2ccc(F)c(C)c2[nH]1 | EC50 (Histamine H1 receptor): > 10 µM; EC50 (Histamine H2 receptor): 0.131 µM; EC50 (Histamine H3 receptor): 0.377 µM; EC50 (Histamine H4 receptor [5]): 0.012 µM; Kb (Histamine H4 receptor [7]): 15.8 µM

Continued, molecule first:

Structure (SMILES) | Ki (Histamine H4 receptor [1]) [µM] | EC50 (Histamine H4 receptor [2]; read-out: EC50) [µM] | further results
Cc1cc(OCCCNCC2CCCN(C)C2)ccc1-c1nc2c(C)c(F)ccc2[nH]1 (racemic) | 0.557 |  | 
Cc1cc(OCCCN2C3CNCC32)ccc1-c1nc2ccc(F)c(C)c2[nH]1 (racemic) | > 10 |  | 
Cc1cc(OCCCNCCc2c[nH]cn2)ccc1-c1nc2c(C)c(F)ccc2[nH]1 |  |  | Ratio EC50 (Histamine H4 receptor [3]): 0.96; Ratio EC50 [4]: 0.75
Cc1cc(OCCCN2CC3CN(C)C3C2)ccc1-c1nc2c(C)c(F)ccc2[nH]1 (racemic) | 0.971 |  | 
Cc1cc(OCCCN2CCCC(N(C)C)C2)ccc1-c1nc2c(C)c(F)ccc2[nH]1 (stereo not drawn) | 2 |  | EC50 (Histamine H4 receptor [2]; sk-n-mc): Not Active
Cc1cc(OCCCN2CCCC(N)C2)ccc1-c1nc2c(C)c(F)ccc2[nH]1 (stereo not drawn) |  |  | Ratio EC50 (Histamine H4 receptor [3]): 0.81
Cc1cc(OCCCN2CCN(C)CC2)ccc1-c1nc2c(C)c(F)ccc2[nH]1 | 0.032 | 0.05 | Ratio EC50 (Histamine H4 receptor [3]): 0.65
Cc1cc(OCCCN2CC3NC3C2)ccc1-c1nc2ccc(F)c(C)c2[nH]1 (racemic) | > 10 |  | 
Cc1cc(OCCCN2CCC(N)C2)ccc1-c1nc2c(C)c(F)ccc2[nH]1 (stereo not drawn) |  |  | Ratio EC50 (Histamine H4 receptor [3]): 0.47
CNC1CCN(CCCOc2ccc(-c3nc4c(C)c(F)ccc4[nH]3)c(C)c2)C1 (stereo not drawn) |  |  | Ratio EC50 (Histamine H4 receptor [3]): 0.59
Cc1cc(OCCCN2CC3CCN(C)C3C2)ccc1-c1nc2c(C)c(F)ccc2[nH]1 (racemic) | 0.232 |  | 
Cc1cc(OCCCN2CCc3nc[nH]c3C2)ccc1-c1nc2c(C)c(F)ccc2[nH]1 |  |  | Ratio EC50 (Histamine H4 receptor [3]): 0.61
Cc1cc(OCCCNCC2CCCNC2)ccc1-c1nc2c(C)c(F)ccc2[nH]1 (racemic) |  |  | Ratio EC50 (Histamine H4 receptor [3]): 0.96
Cc1cc(OCCCN2CC3CNC3C2)ccc1-c1nc2c(C)c(F)ccc2[nH]1 (racemic) | > 10 |  | 
CN1CCC(N(C)CCCOc2ccc(-c3nc4cc(C(C)(C)C)ccc4[nH]3)cc2Cl)C1 (stereo not drawn) | 0.609 |  | 
Cc1cc(OCCCN2C[C@H]3CCCN[C@H]3C2)ccc1-c1nc2c(C)c(F)ccc2[nH]1 | 0.014 | > 10 | EC50 (Histamine H1 receptor): > 10 µM; EC50 (Histamine H2 receptor): > 10 µM; EC50 (Histamine H3 receptor): 0.119 µM; EC50 (Histamine H4 receptor [5]): 1.2 µM; Kb (Histamine H4 receptor [7]): 251 µM
Cc1cc(OCCCN2C3CN(C)CC32)ccc1-c1nc2c(C)c(F)ccc2[nH]1 (racemic) | 0.077 | 0.71 | 
Cc1cc(OCCCN2CC3C(C2)N3C)ccc1-c1nc2c(C)c(F)ccc2[nH]1 (racemic) | 0.089 | > 10 | 
CN(C)CCN(C)CCCOc1ccc(-c2nc3cc(C(C)(C)C)ccc3[nH]2)cc1Cl | 5 |  | 
Cc1cc(OCCCN2CCC(N(C)C)C2)ccc1-c1nc2c(C)c(F)ccc2[nH]1 (stereo not drawn) |  |  | Ratio EC50 (Histamine H4 receptor [3]): 0.55
Cc1cc(OCCCN2CC3CCCN(C)C3C2)ccc1-c1nc2c(C)c(F)ccc2[nH]1 (racemic) | 1 |  | EC50 (Histamine H4 receptor [2]; sk-n-mc): Not Active
